Measured values as given in ChEMBL document CHEMBL1681638, “Synthesis of GN8 derivatives and evaluation of their antiprion activity in TSE-infected cells” (Bioorg Med Chem Lett, 2011).
The source made the active and inactive calls. No cut-off for these calls is given here.

Legend:
[1] = test system: GT1-7; experiment: Antiprion activity in human transmissible spongiform encephalopathies agent Fukuoka-1 prion infected GT1-7 cells assessed as proteinase K-resistant proteins at 10 uM after 3 days Western blotting analysis relative to control; format: cell-based
[2] = Antiprion activity in human transmissible spongiform encephalopathies agent Fukuoka-1 prion infected GT1-7 cells assessed as proteinase K-resistant proteins after 3 days Western blotting analysis; format: cell-based; settings: GT1-7, 72 h
[3] = species: Mus musculus; experiment: Effect on PrPc expression level in mouse GT1-7 at 10 uM after 3 days by Western blot method
[4] = species: Mus musculus; experiment: Binding affinity to mouse PrPC by surface plasmon resonance
[5] = Cytotoxicity against mouse GT1-7 cells at 2 uM; format: cell-based; settings: gt1-7, 2 µM
[6] = species: Mus musculus; experiment: Effect on PrPc expression level in mouse GT1-7 at 2 uM after 3 days by Western blot method

| Structure (SMILES) | Activity [1] | further results |
| --- | --- | --- |
| CN(C)CC(=O)Nc1ccc(Cc2ccc(NC(=O)CN(C)C)cc2)cc1 | 58% | – |
| COc1ccccc1C(c1ccc(NC(=O)CN2CCCC2)cc1)c1ccc(NC(=O)CN2CCCC2)cc1 | – | IC50 [2]: 580 nM |
| O=C(CN1CCCC1)Nc1ccc(Cc2ccc(NC(=O)CN3CC[C@@H](O)C3)cc2)cc1 | 43% | – |
| NCC(=O)Nc1ccc(Cc2ccc(NC(=O)CN)cc2)cc1 | 102% | – |
| O=C(CN1CCCC1)Nc1ccc(S(=O)(=O)c2ccc(NC(=O)CN3CCCC3)cc2)cc1 | 17% | Activity [3]: inactive |
| O=C(CN1CCCC1)Nc1ccc(Oc2ccc(NC(=O)CN3CCCC3)cc2)cc1 | 35% | – |
| COC(=O)[C@H]1CCCN1CC(=O)Nc1ccc(Cc2ccc(NC(=O)CN3CCC[C@@H]3C(=O)OC)cc2)cc1 | 112% | – |
| CN(C(=O)CN1CCCC1)c1ccc(Cc2ccc(N(C)C(=O)CN3CCCC3)cc2)cc1 | 77% | – |
| O=C(CN1CCCC1)Nc1cccc(Cc2cccc(NC(=O)CN3CCCC3)c2)c1 | 20% | Activity [3]: inactive |
| O=C(CN(C1CCCCC1)C1CCCCC1)Nc1ccc(Cc2ccc(NC(=O)CN(C3CCCCC3)C3CCCCC3)cc2)cc1 | 106% | – |
| COC(=O)[C@@H]1CCCN1CC(=O)Nc1ccc(Cc2ccc(NC(=O)CN3CCC[C@H]3C(=O)OC)cc2)cc1 | 61% | – |
| O=C(CN1CCCC1)Nc1ccc(C(c2ccc(F)cc2)(c2ccc(NC(=O)CN3CCCC3)cc2)C(F)(F)F)cc1 | – | RU [4]: 32; Activity [5]: Non-toxic; Activity [6]: inactive; IC50 [2]: 510 nM |
| Nc1ccccc1Sc1nc(N)c(N)c(-c2ccco2)c1N | inactive | – |
| O=C(Nc1ccc(Cc2ccc(NC(=O)c3ccccn3)cc2)cc1)c1ccccn1 | 122% | – |
| O=C(CC1CCCC1)Nc1ccc(Cc2ccc(NC(=O)CC3CCCC3)cc2)cc1 | 86% | – |
| CC(C)N(CC(=O)Nc1ccc(Cc2ccc(NC(=O)CN(C(C)C)C(C)C)cc2)cc1)C(C)C | 20% | – |
| O=C(CN1CCCC1)Nc1ccc2c(c1)Cc1cc(NC(=O)CN3CCCC3)ccc1-2 | 45% | – |
| CCN(CC)CC(=O)Nc1ccc(Cc2ccc(NC(=O)CN(CC)CC)cc2)cc1 | 23% | Activity [3]: inactive |
| O=C(CN1CCCCC1)Nc1ccc(Cc2ccc(NC(=O)CN3CCCCC3)cc2)cc1 | 24% | Activity [3]: inactive |
| O=C(CN1CCC[C@H]1CO)Nc1ccc(Cc2ccc(NC(=O)CN3CCC[C@H]3CO)cc2)cc1 | 91% | – |
| O=C(CN1CCCC1)Nc1ccc(Cc2ccc(NC(=O)CN3CCCC3)cc2)cc1 | 25% | RU [4]: 15; IC50 [2]: 1400 nM |
| O=C(CN1CCCC1)Nc1ccc(C(c2ccc(NC(=O)CN3CCCC3)cc2)C2CCCCCC2)cc1 | – | Activity [5]: Non-toxic; Activity [6]: inactive; IC50 [2]: 510 nM |
| NCC(=O)Nc1ccc(Cc2ccc(NC(=O)CN3CCCC3)cc2)cc1 | 62% | – |
| O=C(CN1CCCC1)Nc1cccc2c(NC(=O)CN3CCCC3)cccc12 | 110% | – |

| Structure (SMILES) | Activity [1] | further results |
| --- | --- | --- |
| CC(c1ccccc1)(c1ccc(NC(=O)CN2CCCC2)cc1)c1ccc(NC(=O)CN2CCCC2)cc1 | – | IC50 [2]: 660 nM |
| Nc1ccc(Cc2ccc(N)cc2)cc1 | 86% | – |
| Nc1ccc(/N=N/c2ccccc2)c(N)c1 | inactive | – |
| CC(C)(c1ccc(NC(=O)CN2CCCC2)cc1)c1ccc(C(C)(C)c2ccc(NC(=O)CN3CCCC3)cc2)cc1 | – | IC50 [2]: 690 nM |
| CC(=O)Nc1ccc(Cc2ccc(NC(=O)CN3CCCC3)cc2)cc1 | 91% | – |
| O=C(Cn1ccnc1)Nc1ccc(Cc2ccc(NC(=O)Cn3ccnc3)cc2)cc1 | 167% | – |
| CC(C)(C)C(c1ccc(NC(=O)CN2CCCC2)cc1)c1ccc(NC(=O)CN2CCCC2)cc1 | – | Activity [6]: inactive; IC50 [2]: 790 nM |
| CN(C)[C@@H]1CCN(CC(=O)Nc2ccc(Cc3ccc(NC(=O)CN4CC[C@@H](N(C)C)C4)cc3)cc2)C1 | 31% | Activity [3]: inactive |
| CCN(CC)CCCC(C)Nc1c2ccc(Cl)cc2nc2ccc(OC)cc12 (configuration not stated) [QUINACRINE] | – | IC50 [2]: 1100 nM |
| CC(=O)Nc1ccc(Cc2ccc(NC(C)=O)cc2)cc1 | 84% | – |
| O=C(Nc1ccc(Cc2ccc(NC(=O)[C@@H]3CCCN3)cc2)cc1)[C@@H]1CCCN1 | 25% | – |
| O=C(CN1CC[C@@H](F)C1)Nc1ccc(Cc2ccc(NC(=O)CN3CC[C@@H](F)C3)cc2)cc1 | 93% | – |
| Nc1ccc(Cc2ccc(NC(=O)CN3CCCC3)cc2)cc1 | 75% | – |
| O=C(CN1CCCC1)Nc1ccc(Cc2ccc(NC(=O)CN3CCOCC3)cc2)cc1 | 77% | – |
| Cc1cc(Cc2cc(C)c(NC(=O)CN3CCCC3)c(C)c2)cc(C)c1NC(=O)CN1CCCC1 | 22% | Activity [3]: inactive |
| O=C(CN1CCCC1)Nc1ccc(C(O)c2ccc(NC(=O)CN3CCCC3)cc2)cc1 | 62% | – |
| O=C(CN1CC[C@@H](O)C1)Nc1ccc(Cc2ccc(NC(=O)CN3CC[C@@H](O)C3)cc2)cc1 | 108% | – |
| O=C(CN1CCCC1)Nc1ccc(CCc2ccc(NC(=O)CN3CCCC3)cc2)cc1 | 40% | – |
| O=C(CN1CCCC1)Nc1ccc(Cc2ccc(NC(=O)CN3CC[C@H](O)C3)cc2)cc1 | 47% | – |
| O=C(CN1CCCC1)Nc1ccccc1NC(=O)CN1CCCC1 | 82% | – |
| CC(C)(c1ccc(NC(=O)CN2CCCC2)cc1)c1cccc(C(C)(C)c2ccc(NC(=O)CN3CCCC3)cc2)c1 | – | IC50 [2]: 830 nM |
| CN(C)[C@H]1CCN(CC(=O)Nc2ccc(Cc3ccc(NC(=O)CN4CC[C@H](N(C)C)C4)cc3)cc2)C1 | 34% | Activity [3]: inactive |
| O=C(CN1C(=O)CCC1=O)Nc1ccc(Cc2ccc(NC(=O)CN3C(=O)CCC3=O)cc2)cc1 | 90% | – |
| O=C(CN1CCC[C@H]1C(F)(F)F)Nc1ccc(Cc2ccc(NC(=O)CN3CCC[C@H]3C(F)(F)F)cc2)cc1 | 85% | – |

| Structure (SMILES) | Activity [1] | further results |
| --- | --- | --- |
| O=C(CN1CCCC1)NCCc1ccc(NC(=O)CN2CCCC2)cc1 | 86% | – |
| O=C(CN1CCCC1)Nc1ccc(C(=O)c2ccc(NC(=O)CN3CCCC3)cc2)cc1 | 24% | Activity [3]: inactive |
| O=C(CN1CCCC1)Nc1ccc(Cc2ccc(NC(=O)CN3CCC[C@@H]3CO)cc2)cc1 | 44% | Activity [3]: inactive |
| O=C(Cn1cccn1)Nc1ccc(Cc2ccc(NC(=O)Cn3cccn3)cc2)cc1 | 106% | – |
| O=C(CN1CCCCCC1)Nc1ccc(Cc2ccc(NC(=O)CN3CCCCCC3)cc2)cc1 | 29% | Activity [3]: inactive |
| O=C(CN1CCCC1)Nc1ccc(Cc2cccc(NC(=O)CN3CCCC3)c2)cc1 | 19% | Activity [3]: inactive |
| O=C(CN1CCCCC1)Nc1ccc(Cc2ccc(NC(=O)CN3CCCC3)cc2)cc1 | 29% | Activity [3]: inactive |
| CC(C)(C(=O)Nc1ccc(Cc2ccc(NC(=O)C(C)(C)N3CCCC3)cc2)cc1)N1CCCC1 | 45% | – |
| O=C(CN1CCCC1)Nc1ccc(Cc2ccc(NC(=O)CN3CCC[C@H]3CO)cc2)cc1 | 47% | Activity [3]: inactive |
| COc1cc(-c2ccc(NC(=O)CN3CCCC3)c(OC)c2)ccc1NC(=O)CN1CCCC1 | 42% | – |
| c1cc(NCCN2CCCC2)ccc1Cc1ccc(NCCN2CCCC2)cc1 | 28% | – |
| O=C(CN1CCOCC1)Nc1ccc(Cc2ccc(NC(=O)CN3CCOCC3)cc2)cc1 | 93% | – |
| CCCCNCC(=O)Nc1ccc(Cc2ccc(NC(=O)CNCCCC)cc2)cc1 | 24% | – |
| O=C(CN1CCC[C@@H]1CO)Nc1ccc(Cc2ccc(NC(=O)CN3CCC[C@@H]3CO)cc2)cc1 | 75% | – |
| CCCN(CCC)CC(=O)Nc1ccc(Cc2ccc(NC(=O)CN(CCC)CCC)cc2)cc1 | 48% | – |
| O=C(CN1CCCC1)Nc1ccc(NC(=O)CN2CCCC2)cc1 | 88% | – |
| Nc1c(/N=N/c2ccc(-c3ccc(/N=N/c4cc(S(=O)(=O)O)c5ccccc5c4N)cc3)cc2)cc(S(=O)(=O)O)c2ccccc12 [CONGO RED] | – | IC50 [2]: 5500 nM |
| O=C(CN1CCCC1)Nc1ccc(Sc2ccc(NC(=O)CN3CCCC3)cc2)cc1 | 22% | Activity [3]: inactive |
| O=C(CN1CC[C@H](O)C1)Nc1ccc(Cc2ccc(NC(=O)CN3CC[C@H](O)C3)cc2)cc1 | 90% | – |
| O=C(CN1CCCC1)Nc1ccc(Cc2ccc(NC(=O)CN3CCCC3)c(Cl)c2)cc1Cl | 38% | – |
| O=C(CNC1CCCC1)Nc1ccc(Cc2ccc(NC(=O)CNC3CCCC3)cc2)cc1 | 26% | – |
| O=C(CN1CC[C@H](F)C1)Nc1ccc(Cc2ccc(NC(=O)CN3CC[C@H](F)C3)cc2)cc1 | 112% | – |
